Source: article PMC6771811, “The structure of a GH149 β‐(1 → 3) glucan phosphorylase reveals a new surface oligosaccharide binding site and additional domains that are absent in the disaccharide‐specific GH94 glucose‐β‐(1 → 3)‐glucose (laminaribiose) phosphorylase” (Proteins, 2019)

Molecular target: T1, Pro_7066 (uncultured bacterium, UniProt Z9M604V374)
T1 construct: His6-tagged, pET28a, E. coli BL21 (DE3); tag removal not mentioned; 130-kDa chain, homodimer; domains span residues 1-1156; GH149
T1 sequence (Z9M604V374 20-1175): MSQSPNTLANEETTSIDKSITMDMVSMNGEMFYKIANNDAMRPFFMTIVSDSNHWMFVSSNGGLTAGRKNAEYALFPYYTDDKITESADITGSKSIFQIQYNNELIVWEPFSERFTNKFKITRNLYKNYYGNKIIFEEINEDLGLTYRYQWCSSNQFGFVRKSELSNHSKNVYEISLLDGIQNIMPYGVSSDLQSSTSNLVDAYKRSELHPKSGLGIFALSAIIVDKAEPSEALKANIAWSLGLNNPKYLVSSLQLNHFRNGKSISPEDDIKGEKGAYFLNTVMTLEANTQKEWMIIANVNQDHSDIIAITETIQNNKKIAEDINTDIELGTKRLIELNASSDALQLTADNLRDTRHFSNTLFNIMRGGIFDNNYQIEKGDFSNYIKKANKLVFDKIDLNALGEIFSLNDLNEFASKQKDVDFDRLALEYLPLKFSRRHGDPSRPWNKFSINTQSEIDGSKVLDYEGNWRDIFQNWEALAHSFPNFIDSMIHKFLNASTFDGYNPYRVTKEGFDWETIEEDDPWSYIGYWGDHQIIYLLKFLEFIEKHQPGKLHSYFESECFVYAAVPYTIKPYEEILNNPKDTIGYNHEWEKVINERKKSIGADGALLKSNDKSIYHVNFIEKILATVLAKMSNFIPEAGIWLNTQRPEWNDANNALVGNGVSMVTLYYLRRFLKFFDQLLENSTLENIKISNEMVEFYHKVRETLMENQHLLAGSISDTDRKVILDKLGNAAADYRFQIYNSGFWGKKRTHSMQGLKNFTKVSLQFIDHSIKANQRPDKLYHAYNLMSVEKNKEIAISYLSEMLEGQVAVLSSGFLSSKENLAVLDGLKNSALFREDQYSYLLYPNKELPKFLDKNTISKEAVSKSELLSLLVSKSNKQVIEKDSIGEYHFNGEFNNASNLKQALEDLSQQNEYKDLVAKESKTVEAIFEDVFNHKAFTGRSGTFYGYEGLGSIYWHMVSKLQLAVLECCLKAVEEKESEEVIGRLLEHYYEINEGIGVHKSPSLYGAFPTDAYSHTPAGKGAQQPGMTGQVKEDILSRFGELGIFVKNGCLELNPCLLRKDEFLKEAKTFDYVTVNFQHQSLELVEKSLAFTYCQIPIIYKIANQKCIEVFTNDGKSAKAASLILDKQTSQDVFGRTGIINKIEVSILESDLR
Test: X-ray crystal structure (co-crystallization), […] Å
Conditions: 8 mM G6, pH 9.0; surface binding site on catalytic domain, ~30 Å from active site; active site holds bicine and sulfate

OC[C@H]1O[C@@H](O[C@@H]2[C@@H](O)[C@H](O[C@@H]3[C@@H](O)[C@H](O[C@@H]4[C@@H](O)[C@H](O[C@@H]5[C@@H](O)[C@H](O[C@H]6[C@H](O)[C@@H](CO)OC(O)[C@@H]6O)O[C@H](CO)[C@H]5O)O[C@H](CO)[C@H]4O)O[C@H](CO)[C@H]3O)O[C@H](CO)[C@H]2O)[C@H](O)[C@@H](O)[C@@H]1O (stereo partly shown) [G6, laminarihexaose]
X-ray crystal structure (co-crystallization), 2.25 Å: G6 bound to a SBS located on the solvent‐exposed surface of the catalytic domain
